The source of these data is publication PMC10210183 (ACS Omega, 2023).

For the experiment, the target named is eqBChE (Equus caballus, UniProt P81908). Kind of experiment: biochemical. The following applies: read-out: BChE % Inhibition ± SD @ 1 μM, eqBChE, 1 μM.

SMILES strings stand for the structures.

eqBChE, sequence (P81908 whole entry): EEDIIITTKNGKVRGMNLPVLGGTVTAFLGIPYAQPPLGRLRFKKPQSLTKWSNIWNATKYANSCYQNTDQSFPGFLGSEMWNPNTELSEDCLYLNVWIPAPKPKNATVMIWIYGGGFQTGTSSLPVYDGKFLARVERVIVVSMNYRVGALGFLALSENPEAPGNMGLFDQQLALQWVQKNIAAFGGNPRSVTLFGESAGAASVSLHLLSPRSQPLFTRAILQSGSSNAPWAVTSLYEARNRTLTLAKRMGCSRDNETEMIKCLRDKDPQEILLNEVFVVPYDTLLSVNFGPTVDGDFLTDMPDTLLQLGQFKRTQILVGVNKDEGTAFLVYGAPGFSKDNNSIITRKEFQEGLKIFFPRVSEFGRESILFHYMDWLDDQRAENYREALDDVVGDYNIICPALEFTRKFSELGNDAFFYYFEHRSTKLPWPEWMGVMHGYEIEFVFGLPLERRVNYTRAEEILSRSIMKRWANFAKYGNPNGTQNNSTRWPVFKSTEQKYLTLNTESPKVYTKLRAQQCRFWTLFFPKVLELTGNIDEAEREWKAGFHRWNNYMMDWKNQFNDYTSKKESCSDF

By inhibition is commonly meant the drop in the measured response relative to a control, in per cent. `COc1cc(/C=C/c2cc[n+](Cc3ccccc3)cc2)cc(OC)c1` [Compound 7a, (E)-1-Benzyl-4-(3,5-dimethoxystyryl)pyridin-1-ium bromide]: the inhibition at 1 µM was 20%.

For the compound `COc1ccc2cc(/C=C/c3cc[n+](Cc4ccccc4)cc3)ccc2c1` [Compound 7aq, (E)-1-Benzyl-4-(2-(6-methoxynaphthalen-2-yl)vinyl)pyridin-1-ium bromide], the inhibition at 1 µM amounted to 60%.
